Test: Corneal permeation experiment in Ussing chamber
Assay type: in vitro ADME
Settings: pig cornea, 37° C., after 18 hours
Protocol: The corneal permeation experiment was conducted with reference to the contents of “Lee et. al, “Modulating the Transport Characteristics of Bruch's Membrane With Steroidal Glycosides and its Relevance to Age-Related Macular Degeneration (AMD). Invest. Ophthalmol. Vis. Sci. 2015, 56, 8403, 2015,” which is an already published paper. […] Basically, the drug is put into the donor chamber of the Ussing chamber, the corneal part of the pig eye is collected in a circular shape of 8 mm in size, and other tissues attached to the cornea were removed, and then fixed in place of the membrane, and the solution permeating the membrane was received in the receiving chamber, and at this time, it was placed in a constant temperature chamber in which the temperature at which diffusion occurs was adjusted to 37° C., which is close to human body temperature, and stored. After a certain amount of time passed, the diffusion properties of each sample could be identified by measuring the concentration of the solution in each donor chamber and receiving chamber. For the concentration, UV/VIS spectrum (Evolution201 UV/Vis; Thermo) was used, and the concentration was measured using a peak height at 420 nm.

## CCN(CC)CCNC(=O)c1c(C)[nH]c(/C=C2\C(=O)Nc3ccc(F)cc32)c1C [Comparative Example 2, sunitinib-malate]
  Drug in corneal tissue (μg, Mean ± SD): 65.7 ± 7.5 µg
  Drug in receiver (μg, Mean ± SD): 8.8 ± 5.8 µg
  Transport percentage* (%, Mean ± SD): 1.6 ± 1.1%
